Results as given in patent US12599597B2, “Substituted N-benzhydrylacetamide inhibitors of jumanji domain histone demethylases for the treatment of cancer” (University of Kentucky Research Foundation, priority 2020, dated 2026).

System: histone methylation in HEK293T cells
Test: Histone methylation in HEK293T cells
Type: cell-based
Details: 5 μM
Protocol: To determine if 58B1 regulates Wnt signaling through epigenetic mechanism, the effects of 58B1 on histone methylation were analyzed. […] Similar results were found in LS174T colon cancer cells. H3K9 and H3K27 methylations are negative regulators of transcription. Without wishing to be bound by theory, it is believed that 58B1 inhibited Wnt signaling by increasing H3K9 or H3K27 methylation on Wnt target gene promotors.

CCCC(=O)NC(c1ccc(N(CC)CC)cc1)c1cc(Cl)c2cccnc2c1O (stereo not shown) [58B1]
H3K4me^2: not | H3K9Me^3: induced | H3K9 dimethylation (H3K9Me^2): strongly induced | H3K27Me^3: induced
